Reference: ChEMBL document CHEMBL6078680, “Improving the Stability and Anti-Infective Activity of Sea Turtle AMPs Using Multiple Structural Modification Strategies” (J Med Chem, 2024)
Calls of active or inactive are those of the source. The rule behind the calls is not given here. Positions of bridges follow the written chain, without caps; N, C: chain ends. Non-standard residues stand in square brackets, D forms with d. Residues, ends and D or L forms follow the SMILES beside them. *: point of attachment. X3 = CC[C@H](C)CCCCC(=O)*; Dab = NCC[C@H](N)C(=O)O

Legend:
[1] = system: Peritoneal macrophage; experiment: Antiinflammatory activity in mouse Peritoneal macrophage cells assessed as inhibition of LPS-induced TNF-alpha production at 20 microg/ml incubated for 6 hrs by ELISA analysis; assay type: functional, cell-based; details: dose 20.0 µg/ml
[2] = system: 4T1; experiment: Cytotoxicity against mouse 4T1 cells assessed as survival rate at 100 microg/ml; assay type: functional; details: read-out: Survival
[3] = system: Peritoneal macrophage; experiment: Antiinflammatory activity in mouse Peritoneal macrophage cells assessed as inhibition of LPS-induced IL-6 production at 20 microg/ml incubated for 6 hrs by ELISA analysis; assay type: functional, cell-based; details: dose 20.0 µg/ml
[4] = system: Staphylococcus aureus; experiment: Antimicrobial activity against Staphylococcus aureus CMCC 26003 at 5 times MIC measured at 180 mins; assay type: functional, organism-based
[5] = system: Peritoneal macrophage; experiment: Cytotoxicity against mouse Peritoneal macrophage cells assessed as decrease in cell number at 20 microg/ml; assay type: functional, cell-based; details: dose 20.0 µg/ml
[6] = system: HaCaT; experiment: Cytotoxicity against human HaCaT cells assessed as survival rate at 100 microg/ml; assay type: functional; details: read-out: Survival
[7] = system: Peritoneal macrophage; experiment: Cytotoxicity against mouse Peritoneal macrophage cells assessed as survival rate at 100 microg/ml; assay type: functional; details: read-out: Survival
[8] = system: B16-F10; experiment: Cytotoxicity against mouse B16-F10 cells assessed as survival rate at 100 microg/ml; assay type: functional; details: read-out: Survival
[9] = Hemolytic activity at human Erythrocyte assessed as hemolysis at 100 microg/ml; assay type: toxicity, cell-based; details: erythrocytes, at 100 µg/mL, read-out: Activity
[10] = system: Escherichia coli; experiment: Drug resistance, ratio of MIC for Escherichia coli ATCC 25922 after 40 passages to MIC for Escherichia coli ATCC 25922 during first exposure; assay type: functional
[11] = Acute toxicity in BALB/c mouse assessed as effect on BUN level at 10 mg/kg, iv measured for 24 hrs; assay type: organism-based; details: in vivo
[12] = system: Staphylococcus aureus; experiment: Antimicrobial activity against Staphylococcus aureus CMCC 26003 measured at 8 hrs in presence of mouse serum; assay type: functional, organism-based
[13] = system: Staphylococcus aureus; experiment: Antibiofilm activity against Staphylococcus aureus CMCC 26003 assessed as biofilm eradication at 0.5 to 2 times MIC incubated for 24 hrs by crystal violet staining based analysis; assay type: functional
[14] = biological target: Trypsin (Homo sapiens, UniProt P07477+P07478+P35030); experiment: Stability of compound assessed as trypsin (unknown origin) mediated drug degradation […] measured at 24 hrs by RP-HPLC analysis; assay type: ADME, protein assay; details: read-out: Activity
[15] = system: Staphylococcus aureus; experiment: Antipersister-activity against Staphylococcus aureus CMCC 26003 assessed as elimination of persister cells at 50 times MIC preincubated adherent persistent cells with colistin incubation for 24 hrs; assay type: functional
[16] = system: Acinetobacter baumannii; experiment: Antibiofilm activity against Acinetobacter baumannii ATCC 19606 assessed as inhibition of biofilm formation at 0.5 times MIC incubated for 48 hrs by crystal violet staining based analysis; assay type: functional
[17] = Acute toxicity in BALB/c mouse assessed as mortality at 15 mg/kg, iv measured for 24 hrs; assay type: organism-based; details: in vivo, read-out: Activity
[18] = Acute toxicity in BALB/c mouse assessed as mortality at 50 mg/kg, iv measured for 24 hrs; assay type: organism-based; details: in vivo, read-out: Activity
[19] = Acute toxicity in BALB/c mouse assessed as mortality at 10 mg/kg, iv measured for 24 hrs; assay type: organism-based; details: in vivo, read-out: Activity
[20] = Acute toxicity in BALB/c mouse assessed as mortality at 20 mg/kg, iv measured for 24 hrs; assay type: organism-based; details: in vivo, read-out: Activity

Compound	Activity [1]	viability at 100 µg/mL [2]	Activity [3]	Activity [4]	Activity [5]	viability at 100 µg/mL [6]	viability at 100 µg/mL [7]	viability at 100 µg/mL [8]	other results
H-FGRFFKKVRKQLGRVLRHSRITVGGRMRF-OH	Active	< 40%	Active	inactive	Active	–	–	–	–
H-RRSRFGRFFKKVRKQLGRVLRHSRITVGG-NH2	Active	< 40%	Active	inactive	Active	80%	80%	< 40%	–
CC[C@H](C)[C@@H]1NC(=O)[C@H](CCCNC(=N)N)NC(=O)[C@H](CO)NC(=O)[C@H](Cc2c[nH]cn2)NC(=O)[C@H](CCCNC(=N)N)NC(=O)[C@H](CC(C)C)NC(=O)[C@H](C(C)C)NC(=O)[C@H](CCCNC(=N)N)NC(=O)CNC(=O)[C@H](CC(C)C)NC(=O)[C@H](CCC(N)=O)NC(=O)[C@H](CCCCN)NC(=O)[C@H](CCCNC(=N)N)NC(=O)[C@H](C(C)C)NC(=O)[C@H](CCCCN)NC(=O)[C@H](CCCCN)NC(=O)[C@H](Cc2ccccc2)NC(=O)[C@@H](N)CSSC[C@@H](C(=O)O)NC(=O)[C@H](Cc2ccccc2)NC(=O)[C@H](CCCNC(=N)N)NC(=O)[C@H](CCSC)NC(=O)[C@H](CCCNC(=N)N)NC(=O)CNC(=O)CNC(=O)[C@H](C(C)C)NC(=O)[C@H]([C@@H](C)O)NC1=O (H-CFKKVRKQLGRVLRHSRITVGGRMRFC-OH; disulfide 1-27)	Active	–	Active	inactive	–	> 80%	> 80%	–	hemolysis at 100 microg/ml [9]: < 5%
C[C@@H](O)[C@H]1C(=O)N2C(C(=O)O)=C(S[C@@H]3CN[C@H](C(=O)N(C)C)C3)[C@H](C)[C@H]12 [MEROPENEM]	–	–	–	–	–	–	–	–	Ratio [10]: 64
H-RFFKKVRKQLGRVLRHSRITVGGRMRF-OH	Active	< 40%	Active	inactive	Active	–	–	–	–
H-RRSRFGRFFKKVRKQLGRVLRHSRITVGGRM-NH2	Active	< 40%	Active	inactive	Active	80%	80%	< 40%	–
H-SRFGRFFKKVRKQLGRVLRHSRITVGGRMRF-OH	Active	< 40%	Active	inactive	Active	–	–	–	–
H-RRSRFGRFFKKVRKQLGRVLRHS-NH2	Active	< 40%	Active	inactive	Active	80%	80%	< 40%	–
H-RRSRFGRFFKKVRKQLGRV-NH2	–	< 40%	–	inactive	–	80%	80%	< 40%	–
CC[C@H](C)[C@H](NC(=O)[C@H](CCCNC(=N)N)NC(=O)[C@H](CO)NC(=O)[C@H](Cc1c[nH]cn1)NC(=O)[C@H](CCCNC(=N)N)NC(=O)[C@@H]1CSSC[C@H](NC(=O)[C@H](CCCCN)NC(=O)[C@@H](N)Cc2ccccc2)C(=O)N[C@@H](CCCCN)C(=O)N[C@@H](C(C)C)C(=O)N[C@@H](CCCNC(=N)N)C(=O)N[C@@H](CCCCN)C(=O)N[C@@H](CCC(N)=O)C(=O)N[C@@H](CC(C)C)C(=O)NCC(=O)N[C@@H](CCCNC(=N)N)C(=O)N[C@@H](C(C)C)C(=O)N[C@@H](CC(C)C)C(=O)N1)C(=O)N[C@H](C(=O)N[C@H](C(=O)NCC(=O)NCC(=O)N[C@@H](CCCNC(=N)N)C(=O)N[C@@H](CCSC)C(=O)N[C@@H](CCCNC(=N)N)C(=O)N[C@@H](Cc1ccccc1)C(=O)O)C(C)C)[C@@H](C)O (H-FKCKVRKQLGRVLCRHSRITVGGRMRF-OH; disulfide 3-14)	Active	–	Active	inactive	–	> 80%	> 80%	–	hemolysis at 100 microg/ml [9]: < 5%; Activity [11]: Non-toxic; Activity [12]: inactive
H-RRSRFGRFFKKVRKQLGRVLR-NH2	Active	< 40%	Active	inactive	Active	80%	80%	< 40%	–
CC[C@@H](C)[C@@H](NC(=O)[C@@H](CCCNC(=N)N)NC(=O)[C@@H](CO)NC(=O)[C@@H](Cc1c[nH]cn1)NC(=O)[C@@H](CCCNC(=N)N)NC(=O)[C@@H](CC(C)C)NC(=O)[C@H](NC(=O)[C@@H](CCCNC(=N)N)NC(=O)CNC(=O)[C@@H](CC(C)C)NC(=O)[C@@H](CCC(N)=O)NC(=O)[C@@H](CCCCN)NC(=O)[C@@H](CCCNC(=N)N)NC(=O)[C@H](NC(=O)[C@@H](CCCCN)NC(=O)[C@@H](CCCCN)NC(=O)[C@H](N)Cc1ccccc1)C(C)C)C(C)C)C(=O)N[C@@H](C(=O)N[C@@H](C(=O)NCC(=O)NCC(=O)N[C@H](CCCNC(=N)N)C(=O)N[C@H](CCSC)C(=O)N[C@H](CCCNC(=N)N)C(=O)N[C@H](Cc1ccccc1)C(=O)O)C(C)C)[C@H](C)O	Active	–	Active	inactive	–	–	–	–	hemolysis at 100 microg/ml [9]: < 5%; Activity [13]: 20%; metabolised at 24 h [14]: < 60%; Activity [15]: 50%; inhibition (INH) [16]: 10%
H-RRSRFGRFFKKVRKQLGRVLRHSRITV-NH2	Active	< 40%	Active	inactive	Active	80%	80%	< 40%	–
H-RRSRFGRFFKKVRKQLGRVLRHSRI-NH2	Active	< 40%	Active	inactive	Active	80%	80%	< 40%	Ratio [10]: 1
CC(C)CCCCC(=O)N[C@@H](CCN)C(=O)N[C@H](C(=O)N[C@@H](CCN)C(=O)N[C@H]1CCNC(=O)[C@H]([C@@H](C)O)NC(=O)[C@H](CCN)NC(=O)[C@H](CCN)NC(=O)[C@H](CC(C)C)NC(=O)[C@@H](Cc2ccccc2)NC(=O)[C@H](CCN)NC1=O)[C@@H](C)O.CC[C@H](C)CCCCC(=O)N[C@@H](CCN)C(=O)N[C@H](C(=O)N[C@@H](CCN)C(=O)N[C@H]1CCNC(=O)[C@H]([C@@H](C)O)NC(=O)[C@H](CCN)NC(=O)[C@H](CCN)NC(=O)[C@H](CC(C)C)NC(=O)[C@@H](Cc2ccccc2)NC(=O)[C@H](CCN)NC1=O)[C@@H](C)O (X3-[Dab]T[Dab][Dab][Dab][dF]L[Dab][Dab]T; lactam 4-C)	–	–	–	–	–	–	–	–	mortality at 24 h [17]: 100%; mortality at 24 h [18]: 100%; mortality at 24 h [19]: 50%; mortality at 24 h [20]: 100%
H-RRSRFGRFFKKVRKQLG-NH2	–	< 40%	–	inactive	–	80%	80%	< 40%	–
